Measured values published in the supplement of paper PMC10307832.

Legend:
Assay in all cases: relative viability (nuclei count vs DMSO), 5 days (fraction); higher = more cells survive
NCI-H1395 = test system: NCI-H1395
Outline: (§1)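 Cells from lung cancer lines were seeded into 1536-well plates and, one day later, dosed by pin tool. Treatments were either a single drug or a fixed dose of an anchor drug with five library-drug doses (not always all listed) in √10 steps. After 5 days, nuclei were stained in a one-step fixation (final 0.05% Triton X-100, 1% formaldehyde, 1 ug/ml Hoechst) and counted on 4× images, and relative viability is the treated-to-vehicle nuclei ratio, as the median of duplicate plates.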

COR-L 105 = test system: COR-L 105
Outline: as §1

COR-L23 = test system: COR-L23
Outline: as §1

NCI-H1793 = test system: NCI-H1793
Outline: as §1

HARA = test system: HARA
Outline: as §1

NCI-H2228 = test system: NCI-H2228
Outline: as §1

UMC-11 = test system: UMC-11
Outline: as §1

NCI-H2347 = test system: NCI-H2347
Outline: as §1

HOP-62 = test system: HOP-62
Outline: as §1

HCC-15 = test system: HCC-15
Outline: as §1

NCI-H2009 = test system: NCI-H2009
Outline: as §1

NCI-H1734 = test system: NCI-H1734
Outline: as §1

NCI-H1755 = test system: NCI-H1755
Outline: as §1

SK-MES-1 = test system: SK-MES-1
Outline: as §1

NCI-H838 = test system: NCI-H838
Outline: as §1

NCI-H1993 = test system: NCI-H1993
Outline: as §1

NCI-H1355 = test system: NCI-H1355
Outline: as §1

NCI-H647 = test system: NCI-H647
Outline: as §1

NCI-H358 = test system: NCI-H358
Outline: as §1

NCI-H2170 = test system: NCI-H2170
Outline: as §1

`COc1cc2nccc(Oc3ccc(NC(=O)Nc4cc(C)on4)c(Cl)c3)c2cc1OC` [Tivozanib] + COc1cc2c(Oc3ccc(NC(=O)C4(C(=O)Nc5ccc(F)cc5)CC4)cc3F)ccnc2cc1OCCCN1CCOCC1 [Foretinib] (partner 0.25 µM) was tested, and the relative viability (NCI-H1395; first compound 0.005 µM) was 1.04, the relative viability (NCI-H1395; first compound 0.01581 µM) was 1.01 and the relative viability (NCI-H1395; first compound 0.05 µM) was 1.11. The relative viability (NCI-H1395; first compound 0.1581 µM) was 0.897, the relative viability (NCI-H1395; first compound 0.5 µM) was 1.03 and the relative viability (COR-L 105; first compound 0.005 µM) was 1.06. For the same compound, the relative viability (COR-L 105; first compound 0.01581 µM) was 1.06, the relative viability (COR-L 105; first compound 0.05 µM) was 1.13 and the relative viability (COR-L 105; first compound 0.1581 µM) was 1.23. It also gave a relative viability (COR-L 105; first compound 0.5 µM) of 1.11, a relative viability (COR-L23; first compound 0.005 µM) of 0.929 and a relative viability (COR-L23; first compound 0.01581 µM) of 0.943. It also gave a relative viability (COR-L23; first compound 0.05 µM) of 1.07, a relative viability (COR-L23; first compound 0.1581 µM) of 0.976 and a relative viability (COR-L23; first compound 0.5 µM) of 0.787. The relative viability (NCI-H1793; first compound 0.005 µM) was 0.559, the relative viability (NCI-H1793; first compound 0.01581 µM) was 0.7 and the relative viability (NCI-H1793; first compound 0.05 µM) was 0.685. The relative viability (NCI-H1793; first compound 0.1581 µM) was 0.479, the relative viability (NCI-H1793; first compound 0.5 µM) was 0.776 and the relative viability (HARA; first compound 0.005 µM) was 0.859. The relative viability (HARA; first compound 0.01581 µM) was 0.855, the relative viability (HARA; first compound 0.05 µM) was 0.928 and the relative viability (HARA; first compound 0.1581 µM) was 0.952. It also gave a relative viability (HARA; first compound 0.5 µM) of 0.905, a relative viability (NCI-H2228; first compound 0.005 µM) of 0.887 and a relative viability (NCI-H2228; first compound 0.01581 µM) of 0.985. It also gave a relative viability (NCI-H2228; first compound 0.05 µM) of 1.13, a relative viability (NCI-H2228; first compound 0.1581 µM) of 0.82 and a relative viability (NCI-H2228; first compound 0.5 µM) of 0.928. For the same compound, the relative viability (UMC-11; first compound 0.005 µM) was 1.07, the relative viability (UMC-11; first compound 0.01581 µM) was 1.04 and the relative viability (UMC-11; first compound 0.05 µM) was 1.1. For the same compound, the relative viability (UMC-11; first compound 0.5 µM) was 1.01, the relative viability (NCI-H2347; first compound 0.005 µM) was 0.905 and the relative viability (NCI-H2347; first compound 0.01581 µM) was 1.09. The relative viability (NCI-H2347; first compound 0.05 µM) was 0.937, the relative viability (NCI-H2347; first compound 0.5 µM) was 0.845 and the relative viability (HOP-62; first compound 0.005 µM) was 1.18. The relative viability (HOP-62; first compound 0.01581 µM) was 1.05, the relative viability (HOP-62; first compound 0.05 µM) was 1.12 and the relative viability (HOP-62; first compound 0.1581 µM) was 1.11. For the same compound, the relative viability (HOP-62; first compound 0.5 µM) was 1.06, the relative viability (HCC-15; first compound 0.005 µM) was 0.915 and the relative viability (HCC-15; first compound 0.01581 µM) was 0.994. The relative viability (HCC-15; first compound 0.05 µM) was 0.993, the relative viability (HCC-15; first compound 0.1581 µM) was 1.03 and the relative viability (HCC-15; first compound 0.5 µM) was 0.977. The relative viability (NCI-H2009; first compound 0.005 µM) was 1.2, the relative viability (NCI-H2009; first compound 0.01581 µM) was 1.16 and the relative viability (NCI-H2009; first compound 0.05 µM) was 1.19. For the same compound, the relative viability (NCI-H2009; first compound 0.1581 µM) was 1.19, the relative viability (NCI-H2009; first compound 0.5 µM) was 1.13 and the relative viability (NCI-H1734; first compound 0.005 µM) was 0.88. It also gave a relative viability (NCI-H1734; first compound 0.01581 µM) of 0.888, a relative viability (NCI-H1734; first compound 0.05 µM) of 0.913 and a relative viability (NCI-H1734; first compound 0.1581 µM) of 0.823. For the same compound, the relative viability (NCI-H1734; first compound 0.5 µM) was 0.863, the relative viability (NCI-H1755; first compound 0.005 µM) was 0.916 and the relative viability (NCI-H1755; first compound 0.01581 µM) was 0.865. It also gave a relative viability (NCI-H1755; first compound 0.05 µM) of 0.945, a relative viability (NCI-H1755; first compound 0.1581 µM) of 0.988 and a relative viability (NCI-H1755; first compound 0.5 µM) of 0.881. It also gave a relative viability (SK-MES-1; first compound 0.005 µM) of 0.862, a relative viability (SK-MES-1; first compound 0.01581 µM) of 0.974 and a relative viability (SK-MES-1; first compound 0.05 µM) of 1.01. The relative viability (SK-MES-1; first compound 0.1581 µM) was 0.981, the relative viability (SK-MES-1; first compound 0.5 µM) was 0.924 and the relative viability (NCI-H838; first compound 0.005 µM) was 1.06. It also gave a relative viability (NCI-H838; first compound 0.01581 µM) of 0.952, a relative viability (NCI-H838; first compound 0.05 µM) of 1.05 and a relative viability (NCI-H838; first compound 0.5 µM) of 1.03. The relative viability (NCI-H1993; first compound 0.005 µM) was 0.632, the relative viability (NCI-H1993; first compound 0.01581 µM) was 0.712 and the relative viability (NCI-H1993; first compound 0.05 µM) was 0.757. For the same compound, the relative viability (NCI-H1993; first compound 0.1581 µM) was 0.733, the relative viability (NCI-H1993; first compound 0.5 µM) was 0.722 and the relative viability (NCI-H1355; first compound 0.005 µM) was 0.937. For the same compound, the relative viability (NCI-H1355; first compound 0.01581 µM) was 0.978, the relative viability (NCI-H1355; first compound 0.05 µM) was 0.975 and the relative viability (NCI-H1355; first compound 0.1581 µM) was 0.929. For the same compound, the relative viability (NCI-H1355; first compound 0.5 µM) was 0.966, the relative viability (NCI-H647; first compound 0.005 µM) was 1.05 and the relative viability (NCI-H647; first compound 0.01581 µM) was 1.28. For the same compound, the relative viability (NCI-H647; first compound 0.05 µM) was 1.26, the relative viability (NCI-H647; first compound 0.1581 µM) was 1.13 and the relative viability (NCI-H647; first compound 0.5 µM) was 1.2. The relative viability (NCI-H358; first compound 0.005 µM) was 0.571, the relative viability (NCI-H358; first compound 0.01581 µM) was 0.672 and the relative viability (NCI-H358; first compound 0.05 µM) was 0.732. For the same compound, the relative viability (NCI-H358; first compound 0.1581 µM) was 0.639, the relative viability (NCI-H358; first compound 0.5 µM) was 0.716 and the relative viability (NCI-H2170; first compound 0.005 µM) was 0.943. The relative viability (NCI-H2170; first compound 0.01581 µM) was 0.982, the relative viability (NCI-H2170; first compound 0.05 µM) was 0.975 and the relative viability (NCI-H2170; first compound 0.1581 µM) was 1.02. It also gave a relative viability (NCI-H2170; first compound 0.5 µM) of 1.06.
